Here are results for 36 compounds from ChEMBL document CHEMBL1667859 (Bioorg Med Chem, 2011).

Sequence of 5-hydroxytryptamine receptor 6 (P50406 whole entry): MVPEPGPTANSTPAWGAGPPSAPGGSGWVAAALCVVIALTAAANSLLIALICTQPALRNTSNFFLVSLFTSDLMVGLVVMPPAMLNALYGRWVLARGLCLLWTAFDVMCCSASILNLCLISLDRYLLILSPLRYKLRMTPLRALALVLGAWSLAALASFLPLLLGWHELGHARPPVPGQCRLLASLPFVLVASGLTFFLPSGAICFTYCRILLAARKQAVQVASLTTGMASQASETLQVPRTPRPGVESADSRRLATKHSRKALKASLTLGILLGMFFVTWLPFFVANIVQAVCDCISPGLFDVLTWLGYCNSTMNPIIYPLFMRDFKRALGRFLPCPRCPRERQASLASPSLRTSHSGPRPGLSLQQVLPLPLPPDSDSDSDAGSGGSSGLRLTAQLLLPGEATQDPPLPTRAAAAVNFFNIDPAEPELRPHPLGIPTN

The assay addresses 5-hydroxytryptamine receptor 6 (Homo sapiens, UniProt P50406).
Description: Antagonist activity at human recombinant 5HT6 receptor expressed in HEK293 cells assessed as inhibition of serotonin-induced cAMP accumulation after 2 hrs
Usually Ki stands for the equilibrium dissociation constant of an inhibitor or competing ligand from its target. The low end stands for a stronger hold on the target, the high end for a looser hold on the target. `CNc1nn2c(COC)cc(C)nc2c1S(=O)(=O)c1ccccc1` gave a Ki of 7.59 nM.

The compound `CNc1nn2c(C)cc(C)nc2c1S(=O)(=O)c1ccc(OC)cc1` showed a Ki of 9.55 nM.

On to `CNc1nn2c(C)cc(C)nc2c1S(=O)(=O)c1ccc(F)c(Cl)c1`, for which the affinity corresponds to a Ki of 0.603 nM.

As for `CNc1nn2c(C)cc(COC)nc2c1S(=O)(=O)c1ccccc1`, the affinity corresponds to a Ki of 0.269 nM.

`CSc1nn2c(C)cc(C)nc2c1S(=O)(=O)c1cccc(F)c1`: affinity was put at a Ki of 1.07 nM.

Take `CSc1nn2c(C)cc(C)nc2c1S(=O)(=O)c1ccc(O)cc1`: the Ki is 3.98 nM.

`CSc1nn2c(C)cc(C)nc2c1S(=O)(=O)c1ccc(F)cc1` showed an inhibition constant (Ki) of 6.76 nM.

The compound `CSc1nn2c(C)cc(C)nc2c1S(=O)(=O)c1ccccc1` showed a Ki of 1.2 nM.

`CNc1nn2c(C)cc(CO)nc2c1S(=O)(=O)c1ccccc1` gave a Ki of 0.479 nM.

`CSc1nn2c(C)cc(C)nc2c1S(=O)(=O)c1ccc(Cl)cc1` had a Ki of 3.16 nM.

Compound `CSc1nn2c(C)cc(C)nc2c1S(=O)(=O)c1ccc(F)c(Cl)c1` gave an inhibitory constant (Ki) of 3.8 nM.

Take `CNc1nn2c(C)cc(C)nc2c1S(=O)(=O)c1cccc(Cl)c1`: the Ki was 0.186 nM.

`CSc1nn2c(CO)cc(C)nc2c1S(=O)(=O)c1ccccc1` gave an inhibitory constant (Ki) of 0.562 nM.

Regarding `CNc1nn2c(C)cc(C)nc2c1S(=O)(=O)c1ccccc1`, the inhibition constant (Ki) is 0.257 nM.

Take `COc1ccc(S(=O)(=O)c2c(SC)nn3c(C)cc(C)nc23)cc1`: the inhibition constant Ki was 37.2 nM.

`CNc1nn2c(C)cc(C)nc2c1S(=O)(=O)c1ccc(F)cc1` showed an inhibitory constant (Ki) of 0.398 nM.

Compound `CNc1nn2c(C)cc(C)nc2c1S(=O)(=O)c1ccc(O)cc1` had a Ki of 2 nM.

`CSc1nn2c(C)cc(C)nc2c1S(=O)(=O)c1ccc(N(C)C)cc1`: the affinity, expressed as Ki, was 37.2 nM.

Compound `CSc1nn2cccnc2c1S(=O)(=O)c1ccccc1` had a Ki of 115 nM.

Turning to `CSc1nn2c(C)ccnc2c1S(=O)(=O)c1ccccc1`, the Ki came to 16.6 nM.

As to `CNc1nn2c(C)cc(C)nc2c1S(=O)(=O)c1cccc(F)c1`, the Ki was 0.501 nM.

As for `CSc1nn2c(C)cc(CO)nc2c1S(=O)(=O)c1ccccc1`, the Ki was 2.14 nM.

Compound `CSc1nn2cccnc2c1S(=O)(=O)c1ccc(F)cc1` had a Ki of 132 nM.

Consider `COCc1cc(C)n2nc(SC)c(S(=O)(=O)c3ccccc3)c2n1`, for which the affinity, expressed as Ki, was 3.24 nM.

The compound `CNc1nn2cccnc2c1S(=O)(=O)c1ccccc1` had an inhibition constant (Ki) of 3.89 nM.

`COCc1cc(C)nc2c(S(=O)(=O)c3ccccc3)c(SC)nn12` showed a Ki of 155 nM.

The compound `CSc1nn2cccnc2c1S(=O)(=O)c1ccc(F)c(Cl)c1` gave an inhibitory constant (Ki) of 44.7 nM.

`CSc1nn2c(C)cc(C)nc2c1S(=O)(=O)c1cccc(Cl)c1` showed a Ki of 0.759 nM.

The compound `CNc1nn2cccnc2c1S(=O)(=O)c1ccc(F)cc1` gave a Ki of 11.7 nM.

Take `CSc1nn2ccc(C)nc2c1S(=O)(=O)c1ccc(F)c(Cl)c1`: the affinity, expressed as Ki, was 7.94 nM.

The compound `CNc1nn2c(CO)cc(C)nc2c1S(=O)(=O)c1ccccc1` had a Ki of 0.282 nM.

Consider `CSc1nn2ccc(C)nc2c1S(=O)(=O)c1ccccc1`, for which affinity was put at a Ki of 16.6 nM.

On to `CNc1nn2c(C)ccnc2c1S(=O)(=O)c1ccccc1`, for which the inhibition constant Ki was 0.24 nM.

For `CSc1nn2cccnc2c1S(=O)(=O)c1cccc(Cl)c1`, the inhibition constant Ki is 15.1 nM.

Regarding `CNc1nn2cccnc2c1S(=O)(=O)c1cccc(Cl)c1`, the affinity, expressed as Ki, was 1.17 nM.

As to `CNc1nn2ccc(C)nc2c1S(=O)(=O)c1ccccc1`, the inhibitory constant (Ki) is 1.45 nM.
